Measured values taken from PubChem BioAssay AID1963450 (Molecular Pharmacology Branch, DTP, NCI, 2024).

System: 556581-035-R-J1-PDC complex spheroid growth
Experiment: Anticancer human tumor 556581-035-R-J1-PDC patient-derived ovarian carcinoma cell line growth inhibition [Asc]
Conditions: for IC50: curve of first compound; for viability, T/C: stronger effect = lower value
Summary of the method: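 Tumor cells were grown as multicellular spheroids with stromal HUVEC and mesenchymal stem cells and treated singly or in combination. Concentrations fell in half-log steps from the clinical Cmax, or from 10 microM where none was known.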
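Further: spheroids exposed to agents for 7 days before viability read.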

## NC(=O)C(=Cn1cnc(-c2cc(C(F)(F)F)cc(C(F)(F)F)c2)n1)c1cncnc1 + CNC(C)C(=O)NC1CN(S(=O)(=O)c2cccc(S(=O)(=O)N3CCC4CCC(C(=O)NC(c5ccccc5)c5ccccc5)N4C(=O)C(NC(=O)C(C)NC)C3)c2)CCC2CCC(C(=O)NC(c3ccccc3)c3ccccc3)N2C1=O
Second compound 0.01 µM
  IC50: > 300 nM
Second compound 0.0316 µM
  IC50: > 300 nM
Second compound 0.1 µM
  IC50: > 300 nM
Second compound 0.316 µM
  IC50: > 300 nM
Second compound 1 µM
  IC50: > 300 nM
Second compound 0.01 µM, first compound 0.000949 µM
  viability, T/C: 93%
Second compound 0.01 µM, first compound 0.003 µM
  viability, T/C: 85.2%
Second compound 0.01 µM, first compound 0.00949 µM
  viability, T/C: 63.7%
Second compound 0.01 µM, first compound 0.03 µM
  viability, T/C: 66.8%
Second compound 0.01 µM, first compound 0.0949 µM
  viability, T/C: 90.1%
Second compound 0.01 µM, first compound 0.3 µM
  viability, T/C: 72.6%
Second compound 0.0316 µM, first compound 0.000949 µM
  viability, T/C: 105%
Second compound 0.0316 µM, first compound 0.003 µM
  viability, T/C: 86%
Second compound 0.0316 µM, first compound 0.00949 µM
  viability, T/C: 87.9%
Second compound 0.0316 µM, first compound 0.03 µM
  viability, T/C: 79.2%
Second compound 0.0316 µM, first compound 0.0949 µM
  viability, T/C: 75.7%
Second compound 0.0316 µM, first compound 0.3 µM
  viability, T/C: 82%
Second compound 0.1 µM, first compound 0.000949 µM
  viability, T/C: 70.7%
Second compound 0.1 µM, first compound 0.003 µM
  viability, T/C: 79.5%
Second compound 0.1 µM, first compound 0.00949 µM
  viability, T/C: 76.1%
Second compound 0.1 µM, first compound 0.03 µM
  viability, T/C: 50%
Second compound 0.1 µM, first compound 0.0949 µM
  viability, T/C: 64.1%
Second compound 0.1 µM, first compound 0.3 µM
  viability, T/C: 63.3%
Second compound 0.316 µM, first compound 0.000949 µM
  viability, T/C: 76.5%
Second compound 0.316 µM, first compound 0.003 µM
  viability, T/C: 75.8%
Second compound 0.316 µM, first compound 0.00949 µM
  viability, T/C: 71.7%
Second compound 0.316 µM, first compound 0.03 µM
  viability, T/C: 65.8%
Second compound 0.316 µM, first compound 0.0949 µM
  viability, T/C: 65.3%
Second compound 0.316 µM, first compound 0.3 µM
  viability, T/C: 62.2%
Second compound 1 µM, first compound 0.000949 µM
  viability, T/C: 76.9%
Second compound 1 µM, first compound 0.003 µM
  viability, T/C: 73%
Second compound 1 µM, first compound 0.00949 µM
  viability, T/C: 66.7%
Second compound 1 µM, first compound 0.03 µM
  viability, T/C: 63%
Second compound 1 µM, first compound 0.0949 µM
  viability, T/C: 59.7%
Second compound 1 µM, first compound 0.3 µM
  viability, T/C: 53.3%

## NC1CCC(NC2CC2c2ccccc2)CC1 (stereo not given) + CNC(C)C(=O)NC1CN(S(=O)(=O)c2cccc(S(=O)(=O)N3CCC4CCC(C(=O)NC(c5ccccc5)c5ccccc5)N4C(=O)C(NC(=O)C(C)NC)C3)c2)CCC2CCC(C(=O)NC(c3ccccc3)c3ccccc3)N2C1=O
Second compound 0.01 µM
  IC50: > 100 nM
Second compound 0.0316 µM
  IC50: > 100 nM
Second compound 0.1 µM
  IC50: > 100 nM
Second compound 0.316 µM
  IC50: > 100 nM
Second compound 1 µM
  IC50: > 100 nM
Second compound 0.01 µM, first compound 0.000316 µM
  viability, T/C: 90.1%
Second compound 0.01 µM, first compound 0.001 µM
  viability, T/C: 93.5%
Second compound 0.01 µM, first compound 0.00316 µM
  viability, T/C: 86.5%
Second compound 0.01 µM, first compound 0.01 µM
  viability, T/C: 92.9%
Second compound 0.01 µM, first compound 0.0316 µM
  viability, T/C: 95.8%
Second compound 0.01 µM, first compound 0.1 µM
  viability, T/C: 86.8%
Second compound 0.0316 µM, first compound 0.000316 µM
  viability, T/C: 86.3%
Second compound 0.0316 µM, first compound 0.001 µM
  viability, T/C: 83.8%
Second compound 0.0316 µM, first compound 0.00316 µM
  viability, T/C: 87.4%
Second compound 0.0316 µM, first compound 0.01 µM
  viability, T/C: 72%
Second compound 0.0316 µM, first compound 0.0316 µM
  viability, T/C: 80.2%
Second compound 0.0316 µM, first compound 0.1 µM
  viability, T/C: 86.1%
Second compound 0.1 µM, first compound 0.000316 µM
  viability, T/C: 86.1%
Second compound 0.1 µM, first compound 0.001 µM
  viability, T/C: 87.5%
Second compound 0.1 µM, first compound 0.00316 µM
  viability, T/C: 75.1%
Second compound 0.1 µM, first compound 0.01 µM
  viability, T/C: 64.5%
Second compound 0.1 µM, first compound 0.0316 µM
  viability, T/C: 80.5%
Second compound 0.1 µM, first compound 0.1 µM
  viability, T/C: 86%
Second compound 0.316 µM, first compound 0.000316 µM
  viability, T/C: 75.2%
Second compound 0.316 µM, first compound 0.001 µM
  viability, T/C: 73.1%
Second compound 0.316 µM, first compound 0.00316 µM
  viability, T/C: 73%
Second compound 0.316 µM, first compound 0.01 µM
  viability, T/C: 71.9%
Second compound 0.316 µM, first compound 0.0316 µM
  viability, T/C: 77.3%
Second compound 0.316 µM, first compound 0.1 µM
  viability, T/C: 64.2%
Second compound 1 µM, first compound 0.000316 µM
  viability, T/C: 66.8%
Second compound 1 µM, first compound 0.001 µM
  viability, T/C: 73%
Second compound 1 µM, first compound 0.00316 µM
  viability, T/C: 73.1%
Second compound 1 µM, first compound 0.01 µM
  viability, T/C: 63.4%
Second compound 1 µM, first compound 0.0316 µM
  viability, T/C: 67.6%
Second compound 1 µM, first compound 0.1 µM
  viability, T/C: 71.4%
